Numbers after ± are expanded uncertainties.
Assay: xn = mol fraction of the nth substance listed
Settings: Liquid, Vibrating tube method

Cc1ccccc1 [toluene] + CCO
mass density [kg/m3]
Settings | 100 kPa | 5000 kPa | 10000 kPa | 15000 kPa | 20000 kPa | 25000 kPa | 30000 kPa | 35000 kPa | 40000 kPa | 45000 kPa
313.15 K, x2 = 0.625 | – | – | – | – | – | – | – | – | – | 846 ± 0.4
313.15 K, x2 = 0.75 | – | – | – | – | – | – | – | – | – | 835.8 ± 0.4
313.15 K, x2 = 0.875 | – | – | – | – | – | – | – | – | – | 823.2 ± 0.5
323.15 K, x2 = 0 | 838.6 ± 0.2 | 843 ± 0.3 | 847.2 ± 0.3 | 851.3 ± 0.3 | 855.2 ± 0.3 | 858.9 ± 0.3 | 862.5 ± 0.3 | 866 ± 0.3 | 869.4 ± 0.3 | 872.6 ± 0.4
323.15 K, x2 = 0.125 | 832.1 ± 0.3 | 836.5 ± 0.3 | 840.8 ± 0.3 | 845 ± 0.3 | 848.9 ± 0.3 | 852.7 ± 0.3 | 856.3 ± 0.3 | 859.9 ± 0.4 | 863.3 ± 0.4 | 866.5 ± 0.4
323.15 K, x2 = 0.25 | 825.8 ± 0.3 | 830.3 ± 0.3 | 834.7 ± 0.3 | 838.9 ± 0.3 | 842.9 ± 0.3 | 846.7 ± 0.3 | 850.4 ± 0.3 | 853.9 ± 0.4 | 857.3 ± 0.4 | 860.6 ± 0.4
323.15 K, x2 = 0.375 | 819.1 ± 0.3 | 823.6 ± 0.3 | 828 ± 0.3 | 832.3 ± 0.3 | 836.3 ± 0.3 | 840.2 ± 0.3 | 843.8 ± 0.4 | 847.4 ± 0.4 | 850.9 ± 0.4 | 854.2 ± 0.4
323.15 K, x2 = 0.5 | 811.3 ± 0.3 | 815.9 ± 0.3 | 820.4 ± 0.3 | 824.7 ± 0.3 | 828.8 ± 0.3 | 832.6 ± 0.3 | 836.4 ± 0.4 | 840 ± 0.4 | 843.4 ± 0.4 | 846.7 ± 0.4
323.15 K, x2 = 0.625 | 802.5 ± 0.3 | 807.1 ± 0.3 | 811.6 ± 0.3 | 815.9 ± 0.3 | 820 ± 0.3 | 824 ± 0.4 | 827.7 ± 0.4 | 831.3 ± 0.4 | 834.8 ± 0.4 | 838.1 ± 0.4
323.15 K, x2 = 0.75 | 792.1 ± 0.3 | 796.8 ± 0.3 | 801.3 ± 0.3 | 805.7 ± 0.3 | 809.8 ± 0.4 | 813.8 ± 0.4 | 817.5 ± 0.4 | 821.2 ± 0.4 | 824.7 ± 0.4 | 828.1 ± 0.5
323.15 K, x2 = 0.875 | 779.3 ± 0.3 | 784.1 ± 0.3 | 788.7 ± 0.4 | 793.1 ± 0.4 | 797.3 ± 0.4 | 801.3 ± 0.4 | 805.1 ± 0.4 | 808.8 ± 0.5 | 812.3 ± 0.5 | 815.7 ± 0.5
333.15 K, x2 = 0 | 828.8 ± 0.2 | 833.5 ± 0.3 | 838 ± 0.3 | 842.3 ± 0.3 | 846.4 ± 0.3 | 850.4 ± 0.3 | 854.2 ± 0.3 | 857.9 ± 0.3 | 861.4 ± 0.4 | 864.8 ± 0.4
333.15 K, x2 = 0.125 | 822 ± 0.3 | 826.7 ± 0.3 | 831.4 ± 0.3 | 835.8 ± 0.3 | 839.9 ± 0.3 | 843.9 ± 0.3 | 847.8 ± 0.3 | 851.5 ± 0.4 | 855.1 ± 0.4 | 858.5 ± 0.4
333.15 K, x2 = 0.25 | 815.6 ± 0.3 | 820.4 ± 0.3 | 825.1 ± 0.3 | 829.5 ± 0.3 | 833.7 ± 0.3 | 837.8 ± 0.3 | 841.7 ± 0.4 | 845.4 ± 0.4 | 849 ± 0.4 | 852.5 ± 0.4
333.15 K, x2 = 0.375 | 808.8 ± 0.3 | 813.6 ± 0.3 | 818.4 ± 0.3 | 822.9 ± 0.3 | 827.1 ± 0.3 | 831.2 ± 0.3 | 835.1 ± 0.4 | 838.9 ± 0.4 | 842.5 ± 0.4 | –
333.15 K, x2 = 0.5 | 801.2 ± 0.3 | 806.1 ± 0.3 | 810.8 ± 0.3 | 815.4 ± 0.3 | 819.7 ± 0.3 | 823.8 ± 0.4 | 827.7 ± 0.4 | 831.5 ± 0.4 | 835.1 ± 0.4 | –
333.15 K, x2 = 0.625 | 792.3 ± 0.3 | 797.2 ± 0.3 | 802.1 ± 0.3 | 806.7 ± 0.3 | 811 ± 0.4 | 815.2 ± 0.4 | 819.1 ± 0.4 | 822.9 ± 0.4 | 826.6 ± 0.4 | –
333.15 K, x2 = 0.75 | 782 ± 0.3 | 787 ± 0.3 | 791.9 ± 0.3 | 796.5 ± 0.4 | 800.9 ± 0.4 | 805.1 ± 0.4 | 809.1 ± 0.4 | 812.9 ± 0.4 | 816.6 ± 0.5 | –
333.15 K, x2 = 0.875 | 769.5 ± 0.3 | 774.6 ± 0.3 | 779.5 ± 0.4 | 784.2 ± 0.4 | 788.7 ± 0.4 | 792.9 ± 0.4 | 796.9 ± 0.4 | 800.7 ± 0.5 | 804.4 ± 0.5 | –
